Measured values as given in article PMC4707489, “A novel cell-penetrating peptide suppresses breast tumorigenesis by inhibiting β-catenin/LEF-1 signaling” (Scientific Reports, 2016).

What was measured:
Format in all cases: cell-based, human
[1] = test system: MCF-7 cells; assay: Cell growth (CCK-8); conditions: 75 μmol/l peptide, MCF-7, CCK-8; means of three experiments (Fig. 1b)
Description: (§1) Cell growth was analyzed using 2-(2-methoxy-4-nitrophenyl)-3-(4-nitroph enyl)-5-(2,4-disulfophenyl)-2H-tetrazolium, monosodium salt, and the Cell Counting Kit-8 (CCK-8, Sigma). […] After culturing for another 48 hr, cell growth was analyzed by CCK-8 and the optical density was detected at 450 nm. The growth ratio was normalized to the cells without treatment.

[2] = test system: MDA-MB-231 cells; assay: Cell growth (CCK-8); conditions: 75 μmol/l peptide, MDA-MB-231, CCK-8; means of three experiments (Fig. 1b)
Description: as §1

[3] = test system: MCF-7 cells; assay: Cell cycle analysis, sub-G1 (propidium iodide, flow cytometry); conditions: MCF-7, 100 μmol/l peptide, flow cytometry (Fig. 3a)
Description: MCF-7 and MDA-MB-231 cells were plated in 6-well plates for 24 hr, and the medium was replaced with fresh culture medium containing 100 μmol/l peptide. After incubation for 24 hr, the cells were harvested by trypsinization and then fixed with 70% 4 °C ethanol. Intracellular DNA was stained with […] propidium iodide in the dark for 30 min at room temperature, and the percentages of sub-G1 cells were determined by flow cytometry (BD LSRII analyzer; BD Biosciences).

Substance | cell growth [1] | cell growth [2] | sub-G1 phase region (pro-apoptotic effect) [3]
H-TAT-NLS-GTDEAAAA-NH2 [TAT-NLS-BLBD-6m, mutated version of TAT-NLS-BLBD-6 (GTDEAAAA), used as control peptide] | did not affect the growth | did not affect the growth | 7.35%
H-TAT-NLS-GGGDPELCATDEMIPFKDEG-NH2 [TAT-NLS-BLBD-3] | inhibited the growth | inhibited the growth | –
